Where two headings read alike, the source gives them in different places.
Tests used:
human 4-HPPD [1] = biological target: T1, human 4-HPPD (Homo sapiens, UniProt P32754)
Description: (§1) 4-HPPD was initially incubated with each compound at saturating concentrations, and the exhaust medium (containing the inhibitor) was removed and replaced with fresh medium without the inhibitor, while the precursor (tyrosine) was added to the substrate. Enzyme activity was monitored by measuring the formation of ochronotic pigment consequent to the formation of HGA. Each inhibitor was analyzed in duplicate, and the analyses were repeated at least three times. In each experiment, control tests were set up as follows: a blank (control without induction), a control without inhibition, and a control with inhibition.
(§2) An optimized version of the jump dilution method was employed to evaluate the residence time of the novel candidate 4-HPPD inhibitors. […] This approach allowed precise tracking of reaction kinetics with high temporal resolution. After determining the IC50 and IC90 values for each tested compound, the enzyme was incubated with the inhibitors at concentrations corresponding to IC90. The exhaust medium containing the inhibitor was subsequently replaced with a fresh and inhibitor-free medium supplemented with tyrosine, the substrate precursor. The recovery of enzymatic activity was monitored over time using spectrophotometric analysis. This analytical approach provided precise measurements of the residence time for each inhibitor.
(§3) Each test was performed in duplicate, and the experiments were replicated at least three times. The tubes were half-capped and stirred at room temperature overnight.
(§4) The tubes were centrifuged at 2500× g for 10 min at 20 °C. The supernatant (exhaust medium) was discarded, while the pellet was resuspended in 7 mL of fresh LBK medium.
(§5) The tubes were incubated at 37 °C with stirring after taking the first sample (T0). Then, every 45 min for a period of 8 h, 220 μL were taken from each tube and placed in an Eppendorf tube, which was centrifuged at 13,000× g for 5 min at 4 °C. Subsequently, 200 μL of supernatant (pigmented medium) from each Eppendorf tube was transferred to a 96-well standard plate, and the absorbance at 405 nm was measured using a multimode plate reader (EnVision 2105, PerkinElmer Inc., Waltham, MA, USA).
(§6) Linear regression analysis was performed to calculate the slope values for each of the two curves corresponding to vs and v0 . These two parameters were then substituted into the equation below and reported for the nonlinear regression analysis of the data related to the tested compounds: Y=vsX+v0−vs /K (1−e^−KX) • Y: Absorbance value (HGA accumulation); • X: time (min); • vs : steady-state velocity; • v0: initial velocity; • K: koff .

human 4-HPPD [2] = biological target: T1, human 4-HPPD; test: Inhibition assay (IC50/IC90): ochronotic pigment formation in recombinant E. coli expressing human 4-HPPD
Description: To do so, an inhibition assay was set up to test the compounds at different concentrations. The bacterial suspension was incubated in a medium containing 1 mM IPTG, 75 µM Tyr, and the tested inhibitor, monitoring the formation of the ochronotic pigment at 405 nm after 24 h.
The pre-inoculum was prepared in LB medium (Lysogeny Broth) supplemented with glucose (1% final concentration) and kanamycin sulfate (50 µg/mL final concentration). […] The pre-inoculum was incubated overnight at 37 °C under agitation. After measuring the OD600 of the pre-inoculum using LB medium as a blank, it was diluted to a final optical density of 0.1 in LB medium supplemented with kanamycin (LBK). The cell culture was shaken at 37 °C, and the OD600 was measured every 45 min until reaching the mid-log phase (0.6–0.8). Protein expression was then induced by adding isopropyl-β-D-thiogalactopyranoside (IPTG) [26, 27, 28].
Briefly, serial dilutions of the inhibitors were prepared in 96-deep well standard plates, starting from a stock solution of 10^−2 M, and then 600 µL of bacterial suspension (see Section 4.1.1) supplemented with 1 mM IPTG and 75 µg/mL Tyr were added into each well.
In parallel, the control tests were set up as follows: • - Blank: culture medium without cell suspension. • - Negative control: cell suspension without IPTG and Tyr. • - Not-Inhibited control: cell suspension supplemented with 1 mM IPTG and 75 µg/mL Tyr.
The plate was incubated on a microplate shaker at 800 rpm for 24 h.
The plates were centrifuged at 3200× g for 10 min at 4 °C. Subsequently, 150 μL of supernatant (pigmented medium) was transferred to a 96-well standard plate, and the absorbance was measured at 405 nm using a multimode plate reader (EnVision 2105, PerkinElmer Inc., Waltham, MA, USA). GraphPad Prism 8 was used to perform a nonlinear regression analysis (Log[Inhibitor] vs. response—Variable slope (four parameters)) and to obtain the inhibition curve of the compounds.

human 4-HPPD [3] = biological target: T1, human 4-HPPD; test: Residence time evaluation by optimized jump dilution method in recombinant E. coli expressing human 4-HPPD
Description: as §1, §2, §3, §4, §5, §6

T1 sequence (P32754 whole entry): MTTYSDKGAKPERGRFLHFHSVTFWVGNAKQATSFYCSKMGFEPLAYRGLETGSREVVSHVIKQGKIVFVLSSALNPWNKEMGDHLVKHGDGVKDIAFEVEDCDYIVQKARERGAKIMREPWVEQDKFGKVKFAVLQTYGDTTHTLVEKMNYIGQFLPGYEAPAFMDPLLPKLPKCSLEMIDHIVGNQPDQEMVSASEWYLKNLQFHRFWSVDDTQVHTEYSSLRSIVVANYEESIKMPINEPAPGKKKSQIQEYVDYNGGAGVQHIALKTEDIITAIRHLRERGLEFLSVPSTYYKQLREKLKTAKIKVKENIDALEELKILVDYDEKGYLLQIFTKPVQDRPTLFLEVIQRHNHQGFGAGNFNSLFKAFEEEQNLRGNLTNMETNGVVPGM

Structure (SMILES)	half-life (t 1/2) (human 4-HPPD [1]) [h]	IC90 (human 4-HPPD [2]) [nM]	koff (human 4-HPPD [3]) [s⁻¹]	residence time (human 4-HPPD [3]) [min]	residence time (τ) (human 4-HPPD [3]; derived from koff)	residence time (τ) (human 4-HPPD [3])
CC1(C)CC(=O)C=C(OC(=O)c2ccc(C(F)(F)F)cc2Cl)C1 [c7, 5,5-dimethyl-3-oxocyclohexenyl 2-chloro-4-(trifluoromethyl) benzoate]	0.3749 ± 0.04297					
CS(=O)(=O)c1ccc(C(=O)C2C(=O)CCCC2=O)c(Cl)c1COCC(F)(F)F [c2, tembotrione]	1.0852 ± 0.27142	500	0.000183	94 ± 23.5		
CC1(C)CC(=O)C(C(=O)c2ccc([N+](=O)[O-])cc2Cl)C(=O)C1 [c4, 5,5-dimethylcyclohexane-2-(2-chloro-4-nitrobenzoyl)-1,3-dione]	1.4964 ± 0.23042					
CS(=O)(=O)c1ccc(C(=O)C2C(=O)CCCC2=O)c([N+](=O)[O-])c1 [c1, mesotrione]		2000	6.67e-05	228 ± 27.6	higher residence time value than NTBC	
CS(=O)(=O)c1ccc(C(=O)C2C(=O)CCCC2=O)c(Cl)c1 [c3, Sulcotrione]	1.3911 ± 0.66537	200	0.000167	120 ± 57.6		higher residence time value than NTBC
O=C1CCCC(=O)C1C(=O)c1ccc([N+](=O)[O-])cc1Cl [c6, 2-(2-chloro-4-nitrobenzoyl)1,3-cyclohexanedione]		8000	0.000133	119 ± 4.87	higher residence time value than NTBC	
CC1(C)CC(=O)C(C(=O)c2ccc(C(F)(F)F)cc2[N+](=O)[O-])C(=O)C1 [c5, 5,5-dimethyl-2-(2-nitro-4-(trifluoromethyl)benzoyl)cyclohexane-1,3-dione]		8000	5e-05	352 ± 53.1	higher residence time value than NTBC	

Source: publication PMC11988800, “A Comprehensive In Vitro and In Silico Approach for Targeting 4-Hydroxyphenyl Pyruvate Dioxygenase: Towards New Therapeutics for Alkaptonuria” (International Journal of Molecular Sciences, 2025)
